Laboratory results: PMC6888386, “Identification of Novel 1,3,5-Triphenylbenzene Derivative Compounds as Inhibitors of Hen Lysozyme Amyloid Fibril Formation” (International Journal of Molecular Sciences, 2019)

How the values were obtained:
[1] = test system: SH-SY5Y human neuroblastoma cells; assay: MTT reduction test with HEWL aggregates; format: cell-based; details: for Rescue of cell viability (MTT reduction): 2 µM HEWL aggregates formed in the presence of 0.32 µM compound
Description: (§1) We then assessed the cytotoxicity of HEWL aggregates, formed in the absence or presence of compounds 1–6, according to the aggregation protocol described for the ThT experiments. HEWL aggregates were collected by centrifugation, dried under N2, dissolved in cell culture medium, and added to SH-SY5Y human neuroblastoma cells at a concentration of 2 µM (monomer equivalents). The ability of the resulting aggregates to cause cellular dysfunction was assessed by performing the MTT reduction inhibition assay, a widely used indicator of mitochondrial dysfunction. […] Very similar results were obtained by measuring the activity of caspase-3, a well-recognized apoptotic marker. A significant activation of caspase-3 (320 ± 12%, as compared to untreated cells) was observed following treatment for 24 h of SH-SY5Y cells with HEWL aggregates at 2 µM (Figure 7B).
(§2) Authenticated human neuroblastoma SH-SY5Y cells were purchased from American Type Culture Collection (ATCC) (Manassas, VA, USA) and they tested negative for mycoplasma contaminations. SH-SY5Y cells were cultured in Dulbecco’s modified Eagle’s medium (DMEM), F-12 Ham with 25 mM HEPES and NaHCO3 (1:1) supplemented with 10% fetal bovine serum (FBS), 1.0 mM glutamine and 1.0% penicillin and streptomycin solution. Cells were maintained in a 5.0% CO2 humidified atmosphere at 37 °C and grown until 80% confluence for a maximum of 20 passages.
HEWL samples pre-incubated for 48 h under aggregating conditions in the absence or presence of 0.32 µM compounds 1–6 were centrifuged and the pellets were dried under N2 to remove any compounds and DMSO, dissolved in cell culture medium at a final HEWL concentration of 2 μM (monomer equivalents), and added to SH-SY5Y cells seeded in 96-well plates for 24 h at 37 °C. The cell medium was then removed and the MTT solution (0.5 mg/mL in RPMI) was added to the cells for 4 h. The medium was then aspirated, and the formazan product was solubilized with cell lysis buffer (20% SDS, 50% N, N-dimethylformamide, pH 4.7) for 1 h, as previously described.

[2] = biological target: T1, hen egg white lysozyme (HEWL) (Gallus gallus, UniProt P00698); assay: Congo red (CR) assay of HEWL aggregation; format: biochemical; details: 0.32 µM compound; for CR absorbance relative to that measured in the absence of the compounds: HEWL pre-incubated 48 h under aggregating conditions
T1 construct: Hen egg white lysozyme (HEWL), thioflavin T (ThT), and Congo red (CR) were purchased from Sigma-Aldrich; purchased Sigma-Aldrich (St. Louis, MO, USA); host or cells: hen egg white (per the product name)
T1 sequence (P00698 19-147): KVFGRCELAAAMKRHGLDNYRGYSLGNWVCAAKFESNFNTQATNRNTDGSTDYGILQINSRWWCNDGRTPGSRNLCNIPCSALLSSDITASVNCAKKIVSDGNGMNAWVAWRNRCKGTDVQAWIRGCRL
Description: Aliquots of the same samples used for ThT experiments were also used to carry out the CR assays. […] The higher CR absorbance obtained in the presence of HEWL is likely to originate from the presence of protein aggregates that scatter light, whereas the red shift of the peak from 490 to 520–540 nm indicates the presence of β-sheet containing aggregates.
(§3) HEWL concentration was determined by optical absorption at 280 nm (ε280 = 2.65 L·g^−1·cm^−1). HEWL was dissolved to a concentration of 2 mg/mL (140 µM) in 50 mM glycine buffer, pH 2.5, centrifuged for 10 min at 13,000 rpm, then incubated at 57 °C for the specified time lengths in the absence or presence of the indicated concentrations of compounds 1–6, under gentle stirring at 250 rpm by a Teflon magnetic bar.
Since compounds 1–6 have optical absorption spectra partially overlapped to that of CR, all protein samples were centrifuged at 10,000 rpm and the pellets resuspended in 50 mM glycine buffer, pH 2.5, at room temperature. A mother solution of 20 mM CR was prepared in 5 mM sodium phosphate buffer, 150 mM NaCl, pH 7.4, it was then filtered using a center-glass N4 filter and stored at 4 °C, until it was placed at room temperature immediately before use. At different time points during protein aggregation, a 60 μL aliquot of resuspended protein solution was mixed with 440 μL of CR solution. Optical absorption spectra were acquired after 2–3 min equilibration at 25 °C, using a Cecil 7200 UV–visible spectrophotometer (Aquarius, Cambridge, England) and a 1 cm path-length cell.

[3] = biological target: T1, hen egg white lysozyme (HEWL); assay: ThT fluorescence assay of HEWL amyloid fibril formation; format: biochemical; details: 48 h; for IC50: HEWL 2 mg/mL (140 µM), 50 mM glycine buffer pH 2.5, 57 °C, stirring 250 rpm, compound 0.03-2.6 µM, Figure 2, read-out: IC50 of prevention of HEWL amyloid fibril formation; for Relative efficacy as inhibitor in terms of IC50 value: HEWL 140 µM, pH 2.5, 57 °C
Description: The inhibition potential of the six compounds was determined using the ThT fluorescence assay to measure the amount of amyloid aggregates after the addition of various concentrations of each compound ranging from 0.03 to 2.6 µM. Aggregation of HEWL was induced by incubating the protein for 48 h at a concentration of 2 mg/mL (140 µM) in 50 mM glycine buffer, pH 2.5, and 57 °C, while stirred gently by magnetic bars (rpm 250), in the absence or presence of 0.03–2.6 µM compounds 1–6. […] The IC50 values of the compounds, corresponding to the concentration at which the inhibitory effect is half of the maximum effect, were determined (Figure 2).
as §3
A mother solution of 2.5 mM ThT was prepared in 10 mM sodium phosphate buffer, 150 mM NaCl, pH 7.0. It was then passed through a 0.45 μm filter paper and stored at 4 °C until it was placed at room temperature immediately before use. At regular time intervals, a 10 µL aliquot of protein solution was mixed with 990 μL of ThT solution in a 10 × 10 mm quartz cuvette and the fluorescence emission spectra were recorded at room temperature using a Cary Eclipse VARIAN fluorescence spectrophotometer (Varian, Mulgrave, Australia) and an excitation wavelength of 440 nm.

[4] = test system: caspase-3 activity in SH-SY5Y cells; assay: Caspase-3 activity after exposure to HEWL aggregates; format: cell-based, human; details: 24 h; for Prevention of the apoptotic response (caspase-3 activation) induced by aggregates: 2 µM HEWL aggregates formed in the presence of 0.32 µM compound
Description: as §1, §2
HEWL aggregates were formed in the absence or in the presence of 0.32 µM of compounds 1–6 as described in the previous section and then added to the cell culture medium of SH-SY5Y cells seeded on glass coverslips for 24 h at 2 μM (monomer equivalents). Caspase-3 activity was then analyzed by using FAM FLICA^TM caspases 3 & 7 solution (caspase 3 & 7 FLICA kit FAM-DEVDFMK, Immunochemistry Technologies, LLC, Bloomington, MN, USA). Cell fluorescence was analyzed by the TCS SP8 scanning confocal microscopy system (Leica Microsystems, Mannheim, Germany) equipped with an argon laser source, as previously reported. A series of 1.0 μm thick optical sections (1024 × 1024 pixels) was taken through the cell depth for each sample using a Leica Plan Apo 63 × oil immersion objective for fluorescence measurement at 488 nm. The confocal microscope was set at optimal acquisition conditions, e.g., pinhole diameters, detector gain, and laser powers. Settings were maintained constant for each analysis.

[5] = biological target: T1, hen egg white lysozyme (HEWL); assay: FTIR spectroscopy of HEWL aggregates; format: biochemical; details: 0.32 µM compound, 48 h, resuspended in D2O
Description: New samples of HEWL aggregates with or without compounds 1–6 at a concentration of 0.32 µM were prepared, under the same conditions as those used for ThT and CR experiments, centrifuged after 48 h to collect the aggregates, resuspended at high concentration in D2O and analyzed with FTIR spectroscopy, to determine the effects of the six compounds on the secondary structure of the HEWL aggregates. […] Another peak is present at ca. 1650 cm^−1 attributable to either unordered or α-helical secondary structure.
Samples were incubated for 48 h to promote aggregation as described above in the presence of 0.32 µM compounds 1–6, centrifuged at 13,000× g for 10 min and resuspended in D2O to a final volume of 72.8 μL, to reach a final concentration of 27.8 mg/mL. For each sample, 40 μL was deposited onto an Omni-Cell transmission cell with a 25 μm spacer (Specac, Orpington, UK), and Fourier-transform infrared (FTIR) spectra were recorded using a FTS-40 FTIR spectrometer (Bio-Rad, Hercules, CA, USA) purged with a continuous flow of dry air. Sixty-four interferograms were accumulated in each case at a spectral resolution of 1 cm^−1. The FTIR absorbance spectra were blank-subtracted and baseline-corrected to reveal the amide I region (1600–1700 cm^−1). […]

[6] = biological target: T1, hen egg white lysozyme (HEWL); assay: Atomic force microscopy of HEWL aggregates; format: biochemical; details: 0.32 µM compound, HEWL 140 µM, pH 2.5, 57 °C, 48 h
Description: In order to define further the nature of the aggregated species, an analysis of their morphologies was carried out using AFM. HEWL was incubated under the same aggregation conditions used for the ThT, CR, and FTIR experiments, i.e., for 48 h at a concentration of 2 mg/mL (140 µM) in 50 mM glycine buffer, pH 2.5, and 57 °C, under stirring (250 rpm), in the absence or presence of 0.32 µM of compounds 1–6 and the resulting samples were examined by AFM (Figure 6). […] Rather, oligomeric and/or amorphous species were predominant.
HEWL samples pre-incubated for 48 h under aggregating conditions with or without 0.32 µM compounds 1–6 were diluted 100 times in filtered deionized water. A 5 µL aliquot of each of the resulting samples was placed on freshly cleaved mica at room temperature. After a few minutes, the mica was slowly washed with 100 μL of deionized water and dried with N2. Each image was acquired in a non-contact mode at a scan speed of 30 μm/s, loop filter of 3 Hz and force of 200 nN with a Dual Scope Probe Scanner (Veeco, model Auto probe, CP-Research, CA, USA) with an area of 5 × 5 μm^2. Conical shape silicon tips (MikroMasch NSC16) with a resonance frequency of 150 kHz and a nominal constant of 40 N/m were used. Fifteen images were collected for each compound.

[7] = 24 h, 2 µM (monomer equivalents) HEWL aggregates formed in the presence of 0.32 µM compound
[8] = 24 h exposure, 2 µM (monomer equivalents), no compound

Row | Compound | CR absorbance relative to that measured in the absence of the compounds [2] | IC50 [3] [nM] | melting point [°C] | Relative efficacy as inhibitor in terms of IC50 value [3] | Change of secondary structure of HEWL aggregates (amide I, loss of β-sheet) [5] | Absorbance peak at 540 nm in CR difference spectra ([2]; 48 h, spectrum of CR alone subtracted) | MTT reduction relative to untreated cells [1, 7] [%] | Prevention of the apoptotic response (caspase-3 activation) induced by aggregates [4] | Rescue of cell viability (MTT reduction) ([1]; 24 h) | Morphology of HEWL aggregates by AFM [6] | MTT reduction relative to untreated cells [1, 8] | Activation of caspase-3 as compared to untreated cells ([4]; HEWL aggregates at 2 µM, no compound) [%]
1 | c1ccc(-c2cc(-c3ccccc3)cc(-c3ccccc3)c2)cc1 [Compound 1, 1,3,5-triphenylbenzene] | lower | 100 | 171 to 173 |  |  |  | 92.7 ± 3.2 | significantly prevented |  |  |  | 
2 | O=[N+]([O-])c1ccc(-c2cc(-c3ccc([N+](=O)[O-])cc3)cc(-c3ccc([N+](=O)[O-])cc3)c2)cc1 [Compound 3, 1,3,5-tris(4-nitrophenyl)benzene] | lower | 190 | 151 to 152 |  |  |  |  | only a slight protective effect | partial rescue |  |  | 
3 | HEWL aggregates: hen egg white lysozyme aggregates formed 48 h at pH 2.5, 57 °C in the absence of compounds |  |  |  |  |  |  |  |  |  |  | 73.9 ± 2.1% | 320 ± 12
4 | native HEWL: native hen egg white lysozyme |  |  |  |  |  |  |  |  |  |  | unaffected | 

More lines, main results first:

Row | CR absorbance relative to that measured in the absence of the compounds [2] | IC50 [3] [nM] | melting point [°C] | Relative efficacy as inhibitor in terms of IC50 value [3] | Change of secondary structure of HEWL aggregates (amide I, loss of β-sheet) [5] | Absorbance peak at 540 nm in CR difference spectra ([2]; 48 h, spectrum of CR alone subtracted) | Compound | MTT reduction relative to untreated cells [1, 7] [%] | Prevention of the apoptotic response (caspase-3 activation) induced by aggregates [4] | Rescue of cell viability (MTT reduction) ([1]; 24 h) | Morphology of HEWL aggregates by AFM [6] | MTT reduction relative to untreated cells [1, 8] | Activation of caspase-3 as compared to untreated cells ([4]; HEWL aggregates at 2 µM, no compound) [%]
5 | lower | 50 | 238 to 240 | best inhibitor | most remarkable change |  | Fc1ccc(-c2cc(-c3ccc(F)cc3)cc(-c3ccc(F)cc3)c2)cc1 [Compound 2, 1,3,5-tris(4-fluorophenyl)benzene] | 96.2 ± 3.2 | significantly prevented |  |  |  | 
6 | lower | 400 | 178 to 179 |  |  |  | Cc1ccc(-c2cc(-c3ccc(C)cc3)cc(-c3ccc(C)cc3)c2)cc1 [Compound 4, 1,3,5-tris(4-methylphenyl)benzene] |  | significantly prevented | partial rescue |  |  | 
7 | lower | 200 | 142 to 143 |  |  |  | COc1ccc(-c2cc(-c3ccc(OC)cc3)cc(-c3ccc(OC)cc3)c2)cc1 [Compound 5, 1,3,5-tris(4-methoxyphenyl)benzene] | 93.9 ± 2.9 | significantly prevented |  | a few short fibrillar assemblies along with oligomeric species |  | 
8 | markedly higher | 980 | 237 to 239 | minimum effect |  | only a modest decrease | Oc1ccc(-c2cc(-c3ccc(O)cc3)cc(-c3ccc(O)cc3)c2)cc1 [Compound 6, 1,3,5-tris(4-hydroxyphenyl)benzene] |  | only a slight protective effect | partial rescue | a mixture of unbranched filamentous assemblies |  | 
